Reference: patent US10246486B2, “Macrocyclic inhibitors of flaviviridae viruses” (Gilead Sciences, Inc., priority 2012, dated 2019)
Read-outs that look alike come from different tables or passages of the source.

What was measured:
[1] = rcm bond, Hoveyda-Grubbs 2nd generation catalyst
[2] = test system: HCV replicon 1a (human hepatoma Huh-7 cell line harboring a HCV replicon); experiment: microbe, parasite or virus in culture; assay type: cell-based; settings: for inhibition at 1 µM: Hepatitis C virus, Huh-7, 72 h, read-out: Replicon 1a % inhibition at 1 μm

C[C@@H]1NC(=O)[C@H](CO[Si](C)(C)C(C)(C)C)NC(=O)CC=Cc2cc3cc(ccc3cn2)[C@@H](C)OC(=O)[C@@H]2CCCN(N2)C1=O
ring closure, yield of all isomers ([1]; from C=Cc1cc2cc([C@@H](C)OC(=O)[C@@H]3CCCN(C(=O)[C@H](C)NC(=O)[C@H](CO[Si](C)(C)C(C)(C)C)NC(=O)C/C=C/C)N3)ccc2cn1, toluene, 2.98 mM, 105.0 °C, 0.58 h): 38%

CC(C)[C@@H]1NC(=O)CC=Cc2cc3cc(ccc3cn2)[C@@H](C)NC(=O)[C@@H]2CCCN(N2)C(=O)[C@H](C)NC1=O
ring closure, yield of all isomers ([1]; from C=CCC(=O)N[C@H](C(=O)N[C@@H](C)C(=O)N1CCC[C@@H](C(=O)N[C@H](C)c2ccc3cnc(C=C)cc3c2)N1)C(C)C, toluene, 3.86 mM, 111.0 °C, 3.0 h): 2.2%

C[C@@H]1NC(=O)[C@H]([C@@H](C)O[Si](C)(C)C(C)(C)C)NC(=O)CC=Cc2cc3cc(ccc3cn2)[C@@H](C)OC(=O)[C@@H]2CCCN(N2)C1=O
ring closure, yield of all isomers ([1]; from C=Cc1cc2cc([C@@H](C)OC(=O)[C@@H]3CCCN(C(=O)[C@H](C)NC(=O)[C@@H](NC(=O)C/C=C/C)[C@@H](C)O[Si](C)(C)C(C)(C)C)N3)ccc2cn1, toluene, 2.94 mM, 105.0 °C, 1.0 h): 42%

CO[C@@H]1/C=C/c2cc3cc(ccc3cn2)[C@@H](C)OC(=O)[C@@]2(C)CCCN(N2)C(=O)[C@H](C)NC(=O)[C@H](C(C)C)NC(=O)[C@@H]1C [Example 33]
inhibition at 1 µM [2]: 14%

CC(C)[C@@H]1NC(=O)CCCCC=Cc2cc3cc(ccc3cn2)[C@@H](C)OC(=O)[C@@H]2CCCN(N2)C(=O)[C@H](C)NC1=O
ring closure, yield of all isomers ([1]; from C=CCCCCC(=O)N[C@H](C(=O)N[C@@H](C)C(=O)N1CCC[C@@H](C(=O)O[C@H](C)c2ccc3cnc(C=C)cc3c2)N1)C(C)C, toluene, 2.16 mM, 111.0 °C, 0.5 h): 31%

CC(C)[C@@H]1NC(=O)[C@H](C)[C@H](O[Si](C)(C)C(C)(C)C)CCC=Cc2cccc(c2)[C@@H](C)NC(=O)[C@@H]2CCCN(N2)C(=O)[C@H](C)NC1=O
ring closure, yield of all isomers ([1]; from C=CCC[C@@H](O[Si](C)(C)C(C)(C)C)[C@@H](C)C(=O)N[C@H](C(=O)N[C@@H](C)C(=O)N1CCC[C@@H](C(=O)N[C@H](C)c2cccc(C=C)c2)N1)C(C)C, 1,2-dichloroethane, 2.8 mM, 80.0 °C, 1.0 h): 43%

C[C@@H]1NC(=O)[C@H](CCn2cc(CO)nn2)NC(=O)C(C)(C)/C=C/c2cc3cc(ccc3cn2)[C@@H](C)OC(=O)[C@@H]2CCCN(N2)C1=O [Compound 72]
Replicon 1a % inhibition at 1 μm [2]: 0%

CC(C)[C@@H]1NC(=O)[C@H](C)CC=Cc2cc3cc(ccc3cn2)[C@@H](C)OC(=O)[C@@H]2CCCN(N2)C(=O)[C@H](C)NC1=O
ring closure, yield of all isomers ([1]; from C=CC[C@@H](C)C(=O)N[C@H](C(=O)N[C@@H](C)C(=O)N1CCC[C@@H](C(=O)O[C@H](C)c2ccc3cnc(C=C)cc3c2)N1)C(C)C, toluene, 3.0 mM, 120.0 °C, 3.0 h): 22%

CC(C)[C@@H]1NC(=O)[C@H](C)CC=CCOc2ccc(F)c(c2)[C@@H](C)OC(=O)[C@@H]2CCCN(N2)C(=O)[C@H](C)NC1=O
ring closure, yield of all isomers ([1]; from C=CCOc1ccc(F)c([C@@H](C)OC(=O)[C@@H]2CCCN(C(=O)[C@H](C)NC(=O)[C@@H](NC(=O)[C@H](C)CC=C)C(C)C)N2)c1, 1,2-dichloroethane, 3.0 mM, 83.0 °C, 2.0 h): 20%

CO[C@@H]1CCC=Cc2ccc3c(c2)[C@@H](CC3)N(C)C(=O)[C@@H]2CCCN(N2)C(=O)[C@H](C)NC(=O)[C@H](C(C)C)NC(=O)[C@@H]1C
ring closure, yield of all isomers ([1]; from C=CCC[C@@H](OC)[C@@H](C)C(=O)N[C@H](C(=O)N[C@@H](C)C(=O)N1CCC[C@@H](C(=O)N(C)[C@@H]2CCc3ccc(C=C)cc32)N1)C(C)C, 1,2-dichloroethane, 3.9 mM, 83.0 °C, 1.5 h): 5%

CC(C)[C@@H]1NC(=O)CC=Cc2cc3cc(ccc3cn2)[C@@H](C)OC(=O)[C@@H]2CCCN(N2)C(=O)[C@H](C)NC1=O
ring closure, yield of all isomers ([1]; from C=Cc1cc2cc([C@@H](C)OC(=O)[C@@H]3CCCN(C(=O)[C@H](C)NC(=O)[C@@H](NC(=O)C/C=C/C)C(C)C)N3)ccc2cn1, toluene, 3.33 mM, 110.0 °C, 1.0 h): 23.5%

CC[C@@H]1C=Cc2cc3cc(ccc3cn2)[C@@H](C)OC(=O)[C@@H]2CCCN(N2)C(=O)[C@H](C)NC(=O)[C@H](C(C)C)NC1=O
ring closure, yield of all isomers ([1]; from C=Cc1cc2cc([C@@H](C)OC(=O)[C@@H]3CCCN(C(=O)[C@H](C)NC(=O)[C@@H](NC(=O)[C@@H](/C=C/C)CC)C(C)C)N3)ccc2cn1, toluene, 3.0 mM, 120.0 °C, 4.0 h): 1%

CC1C=Cc2cc3cc(ccc3cn2)[C@@H](C)OC(=O)[C@@H]2CCCN(N2)C(=O)[C@H](C)NC(=O)[C@H](C(C)C)NC1=O (stereo partly shown)
ring closure, yield of all isomers ([1]; from C=Cc1cc2cc([C@@H](C)OC(=O)[C@@H]3CCCN(C(=O)[C@H](C)NC(=O)[C@@H](NC(=O)C(C)C=C)C(C)C)N3)ccc2cn1, toluene, 2.6 mM, 111.0 °C, 3.0 h): 1%

CC(C)[C@@H]1NC(=O)CC=Cc2cc3cc(ccc3cn2)[C@@H](C(F)(F)F)NC(=O)[C@@H]2CCCN(N2)C(=O)[C@H](C)NC1=O
ring closure, yield of all isomers ([1]; from C=CCC(=O)N[C@H](C(=O)N[C@@H](C)C(=O)N1CCC[C@@H](C(=O)N[C@@H](c2ccc3cnc(C=C)cc3c2)C(F)(F)F)N1)C(C)C, toluene, 3.04 mM, 120.0 °C, 2.83 h): 3%

CC(C)[C@@H]1NC(=O)CCCC=Cc2cc3cc(ccc3cn2)[C@@H](C)OC(=O)[C@@H]2CCCN(N2)C(=O)[C@H](C)NC1=O
ring closure, yield of all isomers ([1]; from C=CCCCC(=O)N[C@H](C(=O)N[C@@H](C)C(=O)N1CCC[C@@H](C(=O)O[C@H](C)c2ccc3cnc(C=C)cc3c2)N1)C(C)C, toluene, 2.41 mM, 111.0 °C, 0.5 h): 63%

CO[C@@H]1C=Cc2cc3cc(ccc3cn2)[C@@H](C)NC(=O)[C@@H]2CCCN(N2)C(=O)[C@H](C)NC(=O)[C@H](C(C)C)NC(=O)[C@@H]1C
ring closure, yield of all isomers ([1]; from C=Cc1cc2cc([C@@H](C)NC(=O)[C@@H]3CCCN(C(=O)[C@H](C)NC(=O)[C@@H](NC(=O)[C@H](C)[C@@H](/C=C/C)OC)C(C)C)N3)ccc2cn1, toluene, 3.33 mM, 110.0 °C, 8.0 h): 26%

CC(C)[C@@H]1NC(=O)[C@H](C)C/C=C/COc2ccc(F)c(c2)[C@@H](C)OC(=O)[C@@H]2CCCN(N2)C(=O)[C@H](C)NC1=O [Example 35]
inhibition at 1 µM [2]: 94%

C[C@@H]1NC(=O)[C@H](CCc2ccccc2)NC(=O)CC=Cc2cc3cc(ccc3cn2)[C@@H](C)OC(=O)[C@@H]2CCCN(N2)C1=O
ring closure, yield of all isomers ([1]; from C=Cc1cc2cc([C@@H](C)OC(=O)[C@@H]3CCCN(C(=O)[C@H](C)NC(=O)[C@H](CCc4ccccc4)NC(=O)C/C=C/C)N3)ccc2cn1, chlorobenzene, 4.81 mM, 110.0 °C, 3.5 h): 12%

CC(C)[C@@H]1NC(=O)C(C)(C)/C=C/c2ccc3ccc(nc3c2)[C@@H](C(F)(F)F)NC(=O)[C@@H]2CCCN(N2)C(=O)[C@H](C)NC1=O [Example 13]
Replicon 1a % inhibition at 1 μm [2]: 87%

C[C@@H]1NC(=O)[C@H](C2CCCCC2)NC(=O)CC=Cc2cc3cc(ccc3cn2)[C@@H](C)OC(=O)[C@@H]2CCCN(N2)C1=O
ring closure, yield of all isomers ([1]; from C=Cc1cc2cc([C@@H](C)OC(=O)[C@@H]3CCCN(C(=O)[C@H](C)NC(=O)[C@@H](NC(=O)C/C=C/C)C4CCCCC4)N3)ccc2cn1, toluene, 5.0 mM, 110.0 °C, 2.0 h): 7%

C[C@@H]1NC(=O)[C@H](CCn2ccnn2)NC(=O)C(C)(C)/C=C/c2cc3cc(ccc3cn2)[C@@H](C)OC(=O)[C@@H]2CCCN(N2)C1=O [Example 50]
Replicon 1a % inhibition at 1 μm [2]: 12%

CC(C)[C@@H]1NC(=O)CCC(C)(C)CC=Cc2cccc(c2)[C@@H](C)NC(=O)[C@@H]2CCCN(N2)C(=O)[C@H](C)NC1=O
ring closure, yield of all isomers ([1]; from C=CCC(C)(C)CCC(=O)N[C@H](C(=O)N[C@@H](C)C(=O)N1CCC[C@@H](C(=O)N[C@H](C)c2cccc(C=C)c2)N1)C(C)C, 1,2-dichloroethane, 3.38 mM, 80.0 °C, 1.0 h): 8%

CO[C@@H]1/C=C/COc2cccc(c2)[C@@H](C(C)C)NC(=O)[C@@H]2CCCN(N2)C(=O)[C@H](C)NC(=O)[C@H](C(C)C)NC(=O)[C@@H]1C [Example 37, (E)-(2R,5S,11S,14S,17R,18R)-2,14-Diisopropyl-18-methoxy-11,17-di methyl-22-oxa-3,9,12,15,28-pentaaza-tricyclo[21.3.1.1*5,9]octacosa-1(27),19,23,25-tetraene-4,10,13,16-tetraone]
Replicon 1a % inhibition at 1 μm [2]: 76%

CC(C)[C@@H]1NC(=O)C(C)(C)c2cccc(c2)-c2cc3cc(ccc3cn2)[C@@H](C)OC(=O)[C@@H]2CCCN(N2)C(=O)[C@H](C)NC1=O [Compound 67]
inhibition at 1 µM [2]: 97%

C[C@@H]1NC(=O)[C@H](Cc2ccccc2)NC(=O)CC=Cc2cc3cc(ccc3cn2)[C@@H](C)OC(=O)[C@@H]2CCCN(N2)C1=O
ring closure, yield of all isomers ([1]; from C=Cc1cc2cc([C@@H](C)OC(=O)[C@@H]3CCCN(C(=O)[C@H](C)NC(=O)[C@H](Cc4ccccc4)NC(=O)C/C=C/C)N3)ccc2cn1, chlorobenzene, 4.96 mM, 110.0 °C, 3.0 h): 12%

CO[C@@H]1C=Cc2cc3cc(ccc3cn2)[C@@H](C)OC(=O)C2(C)CCCN(N2)C(=O)[C@H](C)NC(=O)[C@H](C(C)C)NC(=O)[C@@H]1C (stereo partly shown)
ring closure, yield of all isomers ([1]; from C=Cc1cc2cc([C@@H](C)OC(=O)C3(C)CCCN(C(=O)[C@H](C)NC(=O)[C@@H](NC(=O)[C@H](C)[C@@H](/C=C/C)OC)C(C)C)N3)ccc2cn1, toluene, 3.06 mM, 111.0 °C, 3.5 h): 21%

CO[C@@H]1CCC=Cc2cccc(c2)C2CCCCN2C(=O)[C@@H]2CCCN(N2)C(=O)[C@H](C)NC(=O)[C@H](C(C)C)NC(=O)[C@@H]1C (stereo partly shown)
ring closure, yield of all isomers ([1]; from C=CCC[C@@H](OC)[C@@H](C)C(=O)N[C@H](C(=O)N[C@@H](C)C(=O)N1CCC[C@@H](C(=O)N2CCCCC2c2cccc(C=C)c2)N1)C(C)C, 1,2-dichloroethane, 3.05 mM, 84.0 °C, 2.5 h): 18%

CC(C)[C@@H]1NC(=O)CC=Cc2ccc3ccc(cc3n2)[C@@H](C)OC(=O)[C@@H]2CCCN(N2)C(=O)[C@H](C)NC1=O
ring closure, yield of all isomers ([1]; from C=CCC(=O)N[C@H](C(=O)N[C@@H](C)C(=O)N1CCC[C@@H](C(=O)O[C@H](C)c2ccc3ccc(C=C)nc3c2)N1)C(C)C, 1,2-dichloroethane, 18.2 mM, 100.0 °C, 1.0 h): 3%
